Experimental data reported in US9630941B2 (priority 2008, dated 2017).

Assays:
[1] = Plasma THC from HME buccal patches in swine model; format: in vivo
Method: THC was used as control formulation. Plasma was sampled from each animal at predetermined times and the amount of THC in the plasma was determined.
FIG. 20: Plasma THC concentrations as a function of time from THC-Val-HS loaded HME buccal patches. Data represents the mean value from 4 pigs. The animals were maintained under anesthesia for the first 4 hours and were then allowed to come out of anesthesia and given access to food and water.
A dose dependent plasma concentration time profile was then evaluated.
Plasma THC concentrations as a function of time and dose from THC-Val-HS loaded HME patches. Data represents the mean value. The animals for maintained under anesthesia for the first 4 hours and were then allowed to come out of anesthesia and given access to food and water.

[2] = In vivo ocular bioavailability of THC after topical formulations
[3] = Chemical stability pH dependent at 25° C.; format: physicochemical
Method: B. Chemical Stability pH Dependent at 25° C.

[4] = Plasma THC after rectal suppository (PEG 1000) in rat; details: polyethylene glycol 1000 base, dose equivalent to 1 mg THC
[5] = Maximum amount dissolved in topical formulations; format: physicochemical
[6] = Control (IPBS) stability for the buccal homogenate study; format: physicochemical
Method: (§1) b. Porcine Buccal Tissue Homogenate Stability
(§2) Protein Concentration 2 mg/ml

[7] = tested on: intraocular pressure (IOP) induced model of glaucoma; test: Rabbit glaucoma model, IOP lowering after topical instillation; details: for Peak IOP drop, IOP as % of the baseline IOP: 50 μL topical
[8] = Thermal stability, 120° C. for 10 min; format: physicochemical
Method: C. Thermal Stability—120° C. for 10 min.

[9] = Aqueous solubility, pH dependent; format: physicochemical
[10] = Stability of THC-Val-HS HME transmucosal patch; details: for Assay (as a % of theoretical amount): HME transmucosal patch
[11] = Porcine buccal tissue homogenate stability; format: in vitro ADME; details: protein concentration 2 mg/ml
Method: as §1, §2

[12] = Bioreversion: plasma stability, porcine plasma; format: in vitro ADME
[13] = THC-Val-HS 0.25% w/v in 0.1% Cremophor RH 40 + 0.02% BAK + 0.1% EDTA + 0.5% HPMC, 1 Hour
[14] = THC-Val-HS 0.26% w/v in 2.5% HPβCD + 0.5% HPMC, 1 Hour
[15] = THC-Val-HS 0.26% w/v in 2.5% HPβCD + 0.5% HPMC, 3 Hours
[16] = THC-Val-HS 10% w/w Ocular Film, 1 Hour
[17] = THC-Val-HS 10% w/w Ocular Film, 3 Hours

CCCCCc1cc(OC(=O)C(NC(=O)CCC(=O)O)C(C)C)c2c(c1)OC(C)(C)C1CCC(C)=CC21 (stereo not drawn) [THC-Valinate-HS (15), THC-valinate-hemisuccinate]
Dose dependence of THC blood levels from HME patches ([1]; swine, 5, 10, 20 mg formulations): dose dependant
11-OH-THC or carboxy metabolite THC-COOH in plasma ([1]; swine, buccal patch): not seen
THC levels in plasma from transmucosal HME patches ([1]; swine, buccal patch, listed as THC-Val-HS): Significant plasma THC levels were observed
THC concentrations in aqueous humor, iris-ciliary bodies / anterior segment ocular tissues ([2]; 1 hour post topical application): significant THC concentrations
Total THC concentration, Aqueous Humor [2, 13]: 62.1 ± 12.6 ng/100 μL
Total THC concentration, Cornea [2, 13]: 1191.7 ± 231.1 ng/50 mg Tissue
Total THC concentration, Iris-Cilliary Body [2, 13]: 51.44 ± 19.5 ng/50 mg Tissue
Total THC concentration, Sclera [2, 13]: 913.4 ± 432.9 ng/250 mg Tissue
Total THC concentration, Aqueous Humor [2, 14]: 69.4 ± 16.7 ng/100 μL
Total THC concentration, Cornea [2, 14]: 1677.1 ± 172.1 ng/50 mg Tissue
Total THC concentration, Iris-Cilliary Body [2, 14]: 65.8 ± 15.9 ng/50 mg Tissue
Total THC concentration, Sclera [2, 14]: 882.2 ± 185.8 ng/250 mg Tissue
Total THC concentration, Aqueous Humor [2, 15]: 38.3 ± 10.2 ng/100 μL
Total THC concentration, Cornea [2, 15]: 1142.3 ± 415.9 ng/50 mg Tissue
Total THC concentration, Iris-Cilliary Body [2, 15]: 57.9 ± 16.1 ng/50 mg Tissue
Total THC concentration, Sclera [2, 15]: 241.8 ± 106.6 ng/250 mg Tissue
Total THC concentration, Aqueous Humor [2, 16]: 61.3 ± 32.1 ng/100 μL
Total THC concentration, Cornea [2, 16]: 1634.5 ± 756.5 ng/50 mg Tissue
Total THC concentration, Iris-Cilliary Body [2, 16]: 86.03 ± 38.2 ng/50 mg Tissue
Total THC concentration, Retina-Choroid [2, 16]: 17.02 ± 8.01 ng/50 mg Tissue
Total THC concentration, Sclera [2, 16]: 1891.2 ± 771.5 ng/250 mg Tissue
Total THC concentration, Aqueous Humor [2, 17]: 29.1 ± 14.2 ng/100 μL
Total THC concentration, Cornea [2, 17]: 1043.4 ± 614.4 ng/50 mg Tissue
Total THC concentration, Iris-Cilliary Body [2, 17]: 104.2 ± 41.2 ng/50 mg Tissue
Total THC concentration, Retina-Choroid [2, 17]: 11.9 ± 4.9 ng/50 mg Tissue
Total THC concentration, Sclera [2, 17]: 812.6 ± 501.4 ng/250 mg Tissue
First order rate constant ([3]; Buffer pH 5.0, 25° C.): Stable
First order rate constant ([3]; Buffer pH 7.0, 25° C.): Stable
First order rate constant ([3]; Buffer pH 9.0, 25° C.): Stable
First order rate constant ([3]; Water, 25° C.): Stable
Blood levels after rectal administration [4]: significant blood levels
maximum amount that could be dissolved ([5]; Tocrisolve emulsion): 0.97 % w/v
maximum amount that could be dissolved ([5]; micellar solution: HPβCD 15% + Cremophor RH 40 0.25% + BAK 0.01% + EDTA 0.1% + HPMC 0.5% w/v): 0.89 % w/v
K [6]: 0.40 ± 0.02 ×10^−3 min^−1
Peak IOP drop, IOP as % of the baseline IOP ([7]; Tocrisolve emulsion, 0.97% w/v THC-Val-HS): 53±3%
IOP-time profile compared with THC ([7]; at a lower dose): significantly better than that of THC
Duration of action (time taken for IOP to return to 90% of baseline) ([7]; both formulations): about 4 hours
time to peak IOP drop after instilling ([7]; micellar solution and Tocrisolve emulsion): ≤ 90 min
Peak IOP drop, IOP as % of the baseline IOP ([7]; micellar solution, 0.89% w/v THC-Val-HS): 62±3%
Drug loading (%) [8]: 112.21 ± 4.99%
CBN content of the sample after heating ([8]; 120° C. for 10 min): 0 µg
Drug remaining ([8]; 120° C. for 10 min): 1350.13 ± 387.10 µg
THC content of the sample after heating ([8]; 120° C. for 10 min): 80.26 ± 8.59 µg
Drug remaining (%) ([8]; 120° C. for 10 min, % of initial): (96.29 ± 3.89) %
CBN content of the sample, initial ([8]; before heating): 0 µg
Initial, μg (drug itself) ([8]; before heating): 1411.49 ± 459.10 µg
THC content of the sample, initial ([8]; before heating): 96.52 ± 3.72 µg
Aqueous Solubility ([9]; H20): 8.50 ± 6.00 µg/mL
Aqueous Solubility ([9]; Water): 16.54 ± 11.69 µM
Aqueous Solubility ([9]; pH 1.2): 0.06 ± 0.03 µg/mL
Aqueous Solubility ([9]; pH 1.2, listed as THC-Valine-HS): 0.12 ± 0.06 µM
Aqueous Solubility ([9]; pH 2): 0.09 ± 0.03 µg/mL
Aqueous Solubility ([9]; pH 2, listed as THC-Valine-HS): 0.17 ± 0.06 µM
Aqueous Solubility ([9]; pH 5): 0.35 ± 0.02 µg/mL
Aqueous Solubility ([9]; pH 5, listed as THC-Valine-HS): 0.67 ± 0.04 µM
Aqueous Solubility ([9]; pH 6): 12.74 ± 1.80 µg/mL
Aqueous Solubility ([9]; pH 6, listed as THC-Valine-HS): 24.80 ± 3.51 µM
Aqueous Solubility ([9]; pH 7): 155.67 ± 31.19 µg/mL
Aqueous Solubility ([9]; pH 7, listed as THC-Valine-HS): 303.06 ± 60.72 µM
Aqueous Solubility ([9]; pH 8): 117.04 ± 10.91 µg/mL
Aqueous Solubility ([9]; pH 8, listed as THC-Valine-HS): 227.86 ± 21.24 µM
Aqueous Solubility ([9]; pH 9): 0.02 ± 0.00 µg/mL
Aqueous Solubility ([9]; pH 9, listed as THC-Valine-HS): 0.05 ± 0.00 µM
Assay (as a % of theoretical amount) ([10]; 1 Month, 25° C./60% RH): 110.6 ± 0.1%
Assay (as a % of theoretical amount) ([10]; 1 Month, 40° C./75% RH): 80.9 ± 3.9%
Assay (as a % of theoretical amount) ([10]; 3 Month, 25° C./60% RH): 108.3 ± 4.6%
Assay (as a % of theoretical amount) ([10]; Initial): 108.4 ± 0.2%
Stability in the hot-melt-extruded formulation ([10]; three month stability data): stable
K [11]: 2.96 ± 0.19 ×10^−3 min^−1
T1/2 [11]: 23.43 ± 1.49 min
K [12]: 85.54 ± 3.74 ×10^−2 min^−1
T1/2 [12]: 8.11 ± 0.35 min
